Measurements from the NIST ThermoML archive (doi:10.1016/j.tca.2011.08.002).

Legend:
[1] = refractive index (Na D-line) (dimensionless); xn = mol fraction of the nth substance listed; details: 101 kPa, Liquid, Standard Abbe refractometry
[2] = xn = mol fraction of the nth substance listed; details: 101 kPa, Liquid, Vibrating tube method

C1CCC(NC2CCCCC2)CC1 [N-cyclohexylcyclohexanamine] + CCCCCO
Details | mass density, [2] [kg/m3] | refractive index, [1]
288.15 K, x2 = 0 | 915.498 | 1.48636
288.15 K, x2 = 0.0525 | 913.936 | 1.48486
288.15 K, x2 = 0.1 | 912.365 | 1.48356
288.15 K, x2 = 0.2006 | 908.415 | 1.47999
288.15 K, x2 = 0.2999 | 903.722 | 1.47587
288.15 K, x2 = 0.3985 | 898.063 | 1.47109
288.15 K, x2 = 0.5001 | 890.925 | 1.46523
288.15 K, x2 = 0.5999 | 882.166 | 1.45834
288.15 K, x2 = 0.6992 | 871.226 | 1.45002
288.15 K, x2 = 0.7993 | 857.281 | 1.43976
288.15 K, x2 = 0.8997 | 839.76 | 1.42718
288.15 K, x2 = 0.9495 | 829.611 | 1.41998
293.15 K, x2 = 0 | 911.705 | 1.48416
293.15 K, x2 = 0.0525 | 910.13 | 1.48266
293.15 K, x2 = 0.1 | 908.547 | 1.48135
293.15 K, x2 = 0.2006 | 904.561 | 1.47776
293.15 K, x2 = 0.2999 | 899.824 | 1.47364
293.15 K, x2 = 0.3985 | 894.123 | 1.46884
293.15 K, x2 = 0.5001 | 886.952 | 1.46298
293.15 K, x2 = 0.5999 | 878.178 | 1.4561
293.15 K, x2 = 0.6992 | 867.264 | 1.4478
293.15 K, x2 = 0.7993 | 853.399 | 1.4376
293.15 K, x2 = 0.8997 | 835.998 | 1.4251
293.15 K, x2 = 0.9495 | 825.915 | 1.41796
298.15 K, x2 = 0 | 907.923 | 1.48198
298.15 K, x2 = 0.0525 | 906.333 | 1.48047
298.15 K, x2 = 0.1 | 904.733 | 1.47916
298.15 K, x2 = 0.2006 | 900.708 | 1.47554
298.15 K, x2 = 0.2999 | 895.929 | 1.47141
298.15 K, x2 = 0.3985 | 890.185 | 1.4666
298.15 K, x2 = 0.5001 | 882.98 | 1.46073
298.15 K, x2 = 0.5999 | 874.191 | 1.45386
298.15 K, x2 = 0.6992 | 863.3 | 1.44555
298.15 K, x2 = 0.7993 | 849.507 | 1.43542
298.15 K, x2 = 0.8997 | 832.22 | 1.42299
298.15 K, x2 = 0.9495 | 822.199 | 1.41591
303.15 K, x2 = 0 | 904.144 | 1.47978
303.15 K, x2 = 0.0525 | 902.538 | 1.47828
303.15 K, x2 = 0.1 | 900.921 | 1.47694
303.15 K, x2 = 0.2006 | 896.855 | 1.47333
303.15 K, x2 = 0.2999 | 892.033 | 1.46918
303.15 K, x2 = 0.3985 | 886.249 | 1.46437
303.15 K, x2 = 0.5001 | 879.007 | 1.4585
303.15 K, x2 = 0.5999 | 870.203 | 1.45162
303.15 K, x2 = 0.6992 | 859.33 | 1.44334
303.15 K, x2 = 0.7993 | 845.602 | 1.43327
303.15 K, x2 = 0.8997 | 828.423 | 1.4209
303.15 K, x2 = 0.9495 | 818.461 | 1.41383
308.15 K, x2 = 0 | 900.372 | 1.47761
308.15 K, x2 = 0.0525 | 898.746 | 1.47608
308.15 K, x2 = 0.1 | 897.111 | 1.47475
308.15 K, x2 = 0.2006 | 893.001 | 1.47113
308.15 K, x2 = 0.2999 | 888.135 | 1.46696
308.15 K, x2 = 0.3985 | 882.309 | 1.46214
308.15 K, x2 = 0.5001 | 875.031 | 1.45627
308.15 K, x2 = 0.5999 | 866.208 | 1.44937
308.15 K, x2 = 0.6992 | 855.348 | 1.44113
308.15 K, x2 = 0.7993 | 841.678 | 1.43108
308.15 K, x2 = 0.8997 | 824.599 | 1.41881
308.15 K, x2 = 0.9495 | 814.694 | 1.41175
313.15 K, x2 = 0 | 896.608 | 1.47562
313.15 K, x2 = 0.0525 | 894.957 | 1.47406
313.15 K, x2 = 0.1 | 893.301 | 1.47258
313.15 K, x2 = 0.2006 | 889.146 | 1.4689
313.15 K, x2 = 0.2999 | 884.235 | 1.46472
313.15 K, x2 = 0.3985 | 878.364 | 1.45985
313.15 K, x2 = 0.5001 | 871.049 | 1.45396
313.15 K, x2 = 0.5999 | 862.207 | 1.44702
313.15 K, x2 = 0.6992 | 851.354 | 1.43878
313.15 K, x2 = 0.7993 | 837.734 | 1.42876
313.15 K, x2 = 0.8997 | 820.749 | 1.41655
313.15 K, x2 = 0.9495 | 810.896 | 1.40963
318.15 K, x2 = 0 | 892.847 | 1.47347
318.15 K, x2 = 0.0525 | 891.168 | 1.4719
318.15 K, x2 = 0.1 | 889.492 | 1.47041
318.15 K, x2 = 0.2006 | 885.287 | 1.46671
318.15 K, x2 = 0.2999 | 880.327 | 1.46251
318.15 K, x2 = 0.3985 | 874.411 | 1.45762
318.15 K, x2 = 0.5001 | 867.056 | 1.45172
318.15 K, x2 = 0.5999 | 858.189 | 1.4448
318.15 K, x2 = 0.6992 | 847.34 | 1.43659
318.15 K, x2 = 0.7993 | 833.766 | 1.42658
318.15 K, x2 = 0.8997 | 816.864 | 1.41445
318.15 K, x2 = 0.9495 | 807.06 | 1.40753
323.15 K, x2 = 0 | 889.089 | 1.47134
323.15 K, x2 = 0.0525 | 887.381 | 1.46975
323.15 K, x2 = 0.1 | 885.679 | 1.46826
323.15 K, x2 = 0.2006 | 881.423 | 1.46457
323.15 K, x2 = 0.2999 | 876.412 | 1.46034
323.15 K, x2 = 0.3985 | 870.446 | 1.45547
323.15 K, x2 = 0.5001 | 863.048 | 1.44954
323.15 K, x2 = 0.5999 | 854.154 | 1.44263
323.15 K, x2 = 0.6992 | 843.305 | 1.43439
323.15 K, x2 = 0.7993 | 829.767 | 1.42439
323.15 K, x2 = 0.8997 | 812.943 | 1.4123
323.15 K, x2 = 0.9495 | 803.186 | 1.40539
